Measured values taken from ChEMBL document CHEMBL1909046, “DrugMatrix in vitro pharmacology data”.

Assays:
[1] = biological target: T1, 5-hydroxytryptamine receptor 1A (Rattus norvegicus, UniProt P19327); type: cell membranes, CHO-K1, Membrane; note: in other assays of this panel Not Active means under 50% inhibition at 10 µM
T1 sequence (P19327 whole entry): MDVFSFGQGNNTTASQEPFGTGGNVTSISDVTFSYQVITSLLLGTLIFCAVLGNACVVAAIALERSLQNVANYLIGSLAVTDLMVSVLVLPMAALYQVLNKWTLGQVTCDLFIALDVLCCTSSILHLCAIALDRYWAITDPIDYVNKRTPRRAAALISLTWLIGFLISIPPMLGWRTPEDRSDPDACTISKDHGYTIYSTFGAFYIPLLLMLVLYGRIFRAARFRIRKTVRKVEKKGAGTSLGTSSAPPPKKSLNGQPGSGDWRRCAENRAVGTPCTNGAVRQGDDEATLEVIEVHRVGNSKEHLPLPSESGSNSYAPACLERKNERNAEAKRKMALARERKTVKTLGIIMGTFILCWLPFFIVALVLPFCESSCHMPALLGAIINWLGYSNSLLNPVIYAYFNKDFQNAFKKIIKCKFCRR

[2] = DRUGMATRIX: Tumor Necrosis Factor (TNF), Non-Selective radioligand binding (ligand: [125I] TNF-alpha); type: cell membranes, Membrane; conditions: u-937; Not Active = under 50% inhibition at 10 µM
[3] = biological target: T2, Amine oxidase [flavin-containing] A (Homo sapiens, UniProt P21397); assay: DRUGMATRIX: Monoamine Oxidase MAO-A enzyme inhibition (substrate: Kynuramine); parameters: species or system BTI-TN-5B1-4; conditions: bti-tn-5b1-4; Not Active = under 50% inhibition at 10 µM
T2 sequence (P21397 whole entry): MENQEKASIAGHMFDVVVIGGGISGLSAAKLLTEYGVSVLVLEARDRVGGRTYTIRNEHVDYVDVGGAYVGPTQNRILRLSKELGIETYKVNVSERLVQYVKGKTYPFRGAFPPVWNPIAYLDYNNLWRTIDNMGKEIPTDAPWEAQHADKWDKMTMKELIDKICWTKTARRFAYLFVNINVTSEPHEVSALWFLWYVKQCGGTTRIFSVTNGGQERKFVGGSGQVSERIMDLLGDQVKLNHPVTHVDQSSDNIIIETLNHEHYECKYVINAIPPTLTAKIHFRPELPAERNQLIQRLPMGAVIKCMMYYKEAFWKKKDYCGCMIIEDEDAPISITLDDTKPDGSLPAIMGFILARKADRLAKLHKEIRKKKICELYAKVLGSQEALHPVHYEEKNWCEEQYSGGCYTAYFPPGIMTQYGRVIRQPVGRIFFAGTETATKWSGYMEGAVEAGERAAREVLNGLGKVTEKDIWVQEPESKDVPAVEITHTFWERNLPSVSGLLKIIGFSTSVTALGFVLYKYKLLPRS

[4] = DRUGMATRIX: Calcium Channel Type L, Phenylalkylamine radioligand binding (ligand: [3H] (-)-Desmethoxyverapamil (D-888)); type: cell membranes, Rattus norvegicus, Wistar, Brain, Membrane; conditions: Not Active = under 50% inhibition at 10 µM
Cytochrome P450 2E1 = Cytochrome P450 2E1 (Homo sapiens, UniProt P05181); conditions: bti-tn-5b1-4; note: in other assays of this panel Not Active means under 50% inhibition at 10 µM
[5] = biological target: Protein kinase C alpha type (Homo sapiens, UniProt P17252); type: cell-based; conditions: sf9;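 note: inhibition of PKCalpha kinase activity measured in an enzyme assay with histone as the phosphorylation substrate; in other assays of this panel Not Active means under 50% inhibition at 10 µM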
[6] = biological target: 5-hydroxytryptamine receptor 4 (Cavia porcellus, UniProt O70528); type: cell membranes, Dunkin-Hartley, Striatum, Membrane; note: in other assays of this panel Not Active means under 50% inhibition at 10 µM
Sequence of 5-hydroxytryptamine receptor 4 (O70528 whole entry): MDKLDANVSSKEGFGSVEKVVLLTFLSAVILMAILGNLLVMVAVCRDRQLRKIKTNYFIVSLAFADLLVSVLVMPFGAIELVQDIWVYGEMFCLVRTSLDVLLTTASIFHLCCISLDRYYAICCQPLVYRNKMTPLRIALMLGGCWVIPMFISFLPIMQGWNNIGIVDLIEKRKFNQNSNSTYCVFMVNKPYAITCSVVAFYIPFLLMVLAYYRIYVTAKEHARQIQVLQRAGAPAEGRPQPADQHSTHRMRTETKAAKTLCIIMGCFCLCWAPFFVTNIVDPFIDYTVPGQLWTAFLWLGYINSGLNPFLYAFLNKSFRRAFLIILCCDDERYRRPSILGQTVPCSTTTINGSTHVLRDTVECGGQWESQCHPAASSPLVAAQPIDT

Sequence of Cytochrome P450 2E1 (P05181 whole entry): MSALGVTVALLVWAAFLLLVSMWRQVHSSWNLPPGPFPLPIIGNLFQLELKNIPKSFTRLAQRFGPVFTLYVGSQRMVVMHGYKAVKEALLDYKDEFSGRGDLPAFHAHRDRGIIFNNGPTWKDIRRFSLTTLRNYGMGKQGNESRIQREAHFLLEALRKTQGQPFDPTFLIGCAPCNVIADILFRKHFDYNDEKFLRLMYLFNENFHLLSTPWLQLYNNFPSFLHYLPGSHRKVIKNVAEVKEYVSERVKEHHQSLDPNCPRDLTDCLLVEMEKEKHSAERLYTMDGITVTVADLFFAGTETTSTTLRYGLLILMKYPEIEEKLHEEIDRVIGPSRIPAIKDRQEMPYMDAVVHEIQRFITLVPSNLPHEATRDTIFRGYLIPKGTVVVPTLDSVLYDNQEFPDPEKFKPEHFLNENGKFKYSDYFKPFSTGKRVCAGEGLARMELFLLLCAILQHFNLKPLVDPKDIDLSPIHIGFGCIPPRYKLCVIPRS

| Molecule | IC50 ([1]; cho-k1) | IC50 [2] | Ki [2] | IC50 [3] | IC50 [4] | Ki [4] | IC50 (Cytochrome P450 2E1) | Ki (Cytochrome P450 2E1) | IC50 [5] | IC50 [6] | IC50 ([4]; read-out: IC50) | Ki ([4]; read-out: Ki) | IC50 ([1]; read-out: IC50) | Ki ([1]; read-out: Ki) | Ki ([1]; cho-k1) | Ki [3] | Ki [5] | Ki [6] |
| --- | --- | --- | --- | --- | --- | --- | --- | --- | --- | --- | --- | --- | --- | --- | --- | --- | --- | --- |
| Cc1ccccc1N1C(=O)c2cc(S(N)(=O)=O)c(Cl)cc2NC1C (stereo not drawn) [METOLAZONE] | Not Active | Not Active | Not Active | Not Active | Not Active | Not Active | Not Active | Not Active | Not Active | Not Active |  |  |  |  |  |  |  |  |
| COCCc1ccc(OCC(O)CNC(C)C)cc1 (stereo not drawn) [METOPROLOL] | Not Active | Not Active | Not Active | Not Active | Not Active | Not Active | Not Active | Not Active | Not Active | Not Active |  |  |  |  |  |  |  |  |
| CCn1cc(C(=O)O)c(=O)c2cc(F)c(N3CCNCC3)cc21 [NORFLOXACIN] | Not Active | Not Active | Not Active | Not Active | Not Active | Not Active | Not Active | Not Active | Not Active | Not Active |  |  |  |  |  |  |  |  |
| NC1=NC(=O)C(c2ccccc2)O1 (stereo not drawn) [PEMOLINE] | Not Active | Not Active | Not Active | Not Active | Not Active | Not Active | Not Active | Not Active | Not Active | Not Active |  |  |  |  |  |  |  |  |
| Nc1nc2c(ncn2CCC(CO)CO)c(=O)[nH]1 [PENCICLOVIR] | Not Active | Not Active | Not Active | Not Active | Not Active | Not Active | Not Active | Not Active | Not Active | Not Active |  |  |  |  |  |  |  |  |
| C=C(C)C1(O)OC(=O)C=C1OC (stereo not drawn) [PENICILLIC ACID] | Not Active | Not Active | Not Active | Not Active | Not Active | Not Active | Not Active | Not Active | Not Active | Not Active |  |  |  |  |  |  |  |  |
| C1CCC(C(CC2CCCCN2)C2CCCCC2)CC1 (stereo not drawn) [PERHEXILINE] | Not Active | Not Active | Not Active | Not Active |  |  | Not Active | Not Active | Not Active | Not Active | 1350 nM | 1310 nM |  |  |  |  |  |  |
| CCOc1ccc(NC(C)=O)cc1 [PHENACETIN] | Not Active | Not Active | Not Active | Not Active | Not Active | Not Active | Not Active | Not Active | Not Active | Not Active |  |  |  |  |  |  |  |  |
| Cc1ccc(N(CC2=NCCN2)c2cccc(O)c2)cc1 [PHENTOLAMINE] | Not Active | Not Active | Not Active | Not Active |  |  | Not Active | Not Active | Not Active | Not Active | 746 nM | 725 nM |  |  |  |  |  |  |
| CNNCc1ccc(C(=O)NC(C)C)cc1 [PROCARBAZINE] | Not Active | Not Active | Not Active | Not Active | Not Active | Not Active | Not Active | Not Active | Not Active | Not Active |  |  |  |  |  |  |  |  |
| CN(C)CCCN1c2ccccc2Sc2ccccc21 [PROMAZINE] |  | Not Active | Not Active | Not Active |  |  | Not Active | Not Active | Not Active | Not Active | 1190 nM | 1160 nM | 5.17 µM | 2960 nM |  |  |  |  |
| CC(O)CO (stereo not drawn) [PROPYLENE GLYCOL] | Not Active | Not Active | Not Active | Not Active | Not Active | Not Active | Not Active | Not Active | Not Active | Not Active |  |  |  |  |  |  |  |  |
| CADMIUM ACETATE | Not Active | Not Active | Not Active | Not Active | Not Active | Not Active | Not Active | Not Active | Not Active | Not Active |  |  |  |  | Not Active | Not Active | Not Active | Not Active |
| LEAD (II) ACETATE | Not Active | Not Active | Not Active | Not Active | Not Active | Not Active | Not Active | Not Active | Not Active | Not Active |  |  |  |  | Not Active | Not Active | Not Active | Not Active |
| LIPOPOLYSACCHARIDE E. COLI O55:B5 | Not Active | Not Active | Not Active | Not Active | Not Active | Not Active | Not Active | Not Active | Not Active | Not Active |  |  |  |  | Not Active | Not Active | Not Active | Not Active |
